Assay results taken from patent publication US9233961B2, “Compounds and compositions for the treatment of parasitic diseases” (Novartis AG, priority 2013, dated 2016).

What was measured:
[1] = test system: Leishmania donovani axenic amastigote parasites; experiment: Leishmania donovani axenic amastigote proliferation assay; assay type: cell-based; conditions: axenic amastigotes in vitro, read-out: L. donovani amastigotes EC50
Summary of the method: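 L. donovani axenic amastigotes (9600/well) in RPMI 1640 with 20% heat-inactivated FBS, folic acid, adenosine, glucose and 25 mM MES, pH 5.5, were incubated with compounds for 2 days at 37 °C, 5% CO2. Viability read by CellTiter-Glo luminescence; EC50 calculated.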

[2] = test system: L. donovani HU3 strain in mouse peritoneal macrophages; experiment: Assay for proliferation of Leishmania parasites in mouse peritoneal macrophages; assay type: cell-based, Leishmania donovani; conditions: Leishmania donovani, Peritoneal macrophage, read-out: L. donavani Macrophage EC50
Summary of the method: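 BALB/c peritoneal macrophages infected 24 h with L. donovani HU3 amastigotes taken from spleens of mice infected 9–11 weeks, then treated with compound for 5 days at 37° C, 5% CO2. Parasite nuclei counted by SYBR Green imaging after fixation; EC50 from percentage inhibition.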

[3] = test system: Trypanosoma brucei Lister 427 strain bloodstream form; experiment: Assay for proliferation of kinetoplastid parasite Trypanosoma brucei; assay type: cell-based; conditions: Lister 427 bloodstream form, 48 hours, read-out: T. brucei EC50
Description: Assay for Proliferation of Kinetoplastid Parasite Trypanosoma brucei.
The proliferation is quantified by the addition of Cell Titer Glo (Promega®) a luminescent cell viability assay that measures the number of viable cells in culture based on the quantification of cellular ATP amount, which is an indicator of metabolically active cells.
The following assay illustrates the invention without in any way limiting the scope of the invention. This parasite proliferation assay measures the increase in parasite growth using an assay that measures ATP activity, Cell Titer Glo®.
Trypanosoma brucei Lister 427 strain is grown in HMI-9 Trypanosome media for T. brucei bloodstream form. 30 μl of HMI-9 media is dispensed into 384 well assay plates. 200 nl of compounds of the invention (in DMSO), including anti-trypanosome controls (Pentamidine and suramin), are then transferred into the assay plates, as well as DMSO alone to serve as a negative control for inhibition. Then 25 μl of a suspension of T. brucei culture in HMI-9 media is dispensed into the assay plates. The final concentration of parasites in culture corresponds to 1.7% of 0.5 uM ATP activity with Cell Titer Glo® in HMI-9 media. The plates are placed in a 37° C. incubator for 48 hours in an atmospheric environment containing 5% CO2. 40 μl of Cell Titer Glo® is dispensed into the plates. The plates are then read for luminescence. The percentage inhibition of 50%, EC50, is calculated for each compound.

Row | Structure (SMILES) | EC50 [1] | EC50 [2] | EC50 [3]
1 | Cc1cnc2nc(-c3cc(NC(=O)Cc4ncccn4)ccc3Cl)[nH]c2c1 [Compound 145] | > 25 µM | > 50 µM | 16.1 µM
2 | Cc1cnc2nc(-c3cc(NC(=O)Cc4onc5ccccc45)ccc3Cl)[nH]c2c1 [Compound 146] | > 25 µM | 21.7 µM | > 14.2 µM
3 | Cc1cnc2nc(-c3cc(NC(=O)c4ccno4)ccc3Cl)[nH]c2c1 [Compound 155] | 7.2 µM | > 39.7 µM | 4.3 µM
4 | COc1ccc(CC(=O)Nc2ccc(Cl)c(-c3nc4ncc(C)cc4[nH]3)c2)cc1 [Compound 156] | > 25 µM | 27.2 µM | > 14.2 µM
5 | Cc1cnc2nc(-c3cc(NC(=O)c4cc[nH]n4)ccc3Cl)[nH]c2c1 [Compound 157] | > 25 µM | > 34.6 µM | 12.8 µM
6 | Cc1cnc2nc(-c3cc(NC(=O)c4cc(C5CC5)n[nH]4)ccc3Cl)[nH]c2c1 [Compound 158] | > 25 µM | > 50 µM | 13 µM
7 | Cc1cnc2nc(-c3cc(NC(=O)CCCN(C)C)ccc3Cl)[nH]c2c1 [Compound 159] | > 25 µM | > 50 µM | > 12.2 µM
8 | Cc1cnc2nc(-c3cc(NC(=O)C(c4ccccc4)C(C)C)ccc3Cl)[nH]c2c1 (stereo not drawn) [Compound 160] | > 24.6 µM | 20.3 µM | 12.4 µM
9 | Cc1cnc2nc(-c3cc(NC(=O)c4noc(C)n4)ccc3Cl)[nH]c2c1 [Compound 161] | > 25 µM | > 50 µM | 9.6 µM
10 | Cc1cnc2nc(-c3cc(NC(=O)c4ccc(C(F)(F)F)nc4C)ccc3Cl)[nH]c2c1 [Compound 162] | > 25 µM | > 50 µM | 1.23 µM
11 | Cc1cnc2nc(-c3cc(NC(=O)C4(C)COC4)ccc3Cl)[nH]c2c1 [Compound 163] | > 25 µM | > 50 µM | > 25 µM
12 | Cc1cnc2nc(-c3cc(NC(=O)C(F)(F)c4ccccc4)ccc3Cl)[nH]c2c1 [Compound 164] | > 25 µM | 23.4 µM | 12.6 µM
13 | COc1ccc(C(C)C(=O)Nc2ccc(Cl)c(-c3nc4ncc(C)cc4[nH]3)c2)cc1 (stereo not drawn) [Compound 165] | > 24.5 µM | 23.1 µM | > 11.7 µM
14 | Cc1cnc2nc(-c3cc(NC(=O)c4ccc(-c5cnccn5)cn4)ccc3Cl)[nH]c2c1 [Compound 166] | > 25 µM | > 27.8 µM | > 25 µM
15 | Cc1ccc(CC(=O)Nc2ccc(Cl)c(-c3nc4ncc(C)cc4[nH]3)c2)cc1 [Compound 167] | > 25 µM | 16.1 µM | > 11.5 µM
16 | Cc1cnc2nc(-c3cc(NC(=O)Cn4cccnc4=O)ccc3Cl)[nH]c2c1 [Compound 168] | > 25 µM | > 50 µM | > 16.7 µM
17 | Cc1cnc2nc(-c3cc(NC(=O)Cc4nnn[nH]4)ccc3Cl)[nH]c2c1 [Compound 169] | > 25 µM | > 50 µM | > 25 µM
18 | Cc1cnc2nc(-c3cc(NC(=O)Cn4cnnn4)ccc3Cl)[nH]c2c1 [Compound 170] | > 25 µM | > 50 µM | > 25 µM
19 | Cc1ccnc(C(=O)Nc2ccc(Cl)c(-c3nc4ncc(C)cc4[nH]3)c2)c1 [Compound 172] | > 25 µM | 23.7 µM | > 15.8 µM
20 | COc1ccnc(C(=O)Nc2ccc(Cl)c(-c3nc4ncc(C)cc4[nH]3)c2)c1 [Compound 173] | > 25 µM | 18.1 µM | > 13.8 µM
21 | Cc1cnc2nc(-c3cc(NC(=O)c4cnco4)ccc3Cl)[nH]c2c1 [Compound 177] | 2.28 µM | > 50 µM | 1.66 µM
22 | Cc1cnc2nc(-c3cc(NC(=O)c4cnc(C)cn4)ccc3Cl)[nH]c2c1 [Compound 178] | 23.8 µM | > 50 µM | 15.2 µM
23 | Cc1cnc2nc(-c3cc(NC(=O)c4nc(C)oc4C)ccc3Cl)[nH]c2c1 [Compound 179] | > 25 µM | > 50 µM | 5 µM
24 | Cc1cnc2nc(-c3cc(NC(=O)c4cccc5c4OCC5)ccc3Cl)[nH]c2c1 [Compound 180] | > 25 µM | 13.2 µM | 8.3 µM
25 | CO[C@@H](C(=O)Nc1ccc(Cl)c(-c2nc3ncc(C)cc3[nH]2)c1)c1ccccc1 [Compound 181] | > 25 µM | > 30.5 µM | > 14.5 µM
26 | Cc1cnc2nc(-c3cc(NC(=O)c4cccc(N(C)C)c4)ccc3Cl)[nH]c2c1 [Compound 184] | > 25 µM | > 50 µM | 8.4 µM

Row | Structure (SMILES) | EC50 [1] | EC50 [2] | EC50 [3]
27 | Cc1cnc2nc(-c3cc(NC(=O)c4ccc(C(C)(C)C)o4)ccc3Cl)[nH]c2c1 [Compound 190] | > 24 µM | 20.2 µM | 5.8 µM
28 | Cc1cnc2nc(-c3cc(NC(=O)c4sc(C)nc4C)ccc3Cl)[nH]c2c1 [Compound 191] | > 25 µM | > 39.1 µM | > 16.2 µM
29 | Cc1cnc2nc(-c3cc(NC(=O)c4nccs4)ccc3Cl)[nH]c2c1 [Compound 192] | 10.2 µM | > 37.9 µM | 0.49 µM
30 | Cc1cnc2nc(-c3cc(NC(=O)c4ccc(S(C)(=O)=O)cc4)ccc3Cl)[nH]c2c1 [Compound 193] | > 25 µM | > 50 µM | 15.2 µM
31 | Cc1cnc2nc(-c3cc(NC(=O)C(C)(C)N)ccc3Cl)[nH]c2c1 [Compound 194] | > 25 µM | > 50 µM | > 11.7 µM
32 | Cc1cnc2nc(-c3cc(NC(=O)c4cc(Cl)cc(Cl)c4)ccc3Cl)[nH]c2c1 [Compound 196] | > 25 µM | 11 µM | 11.2 µM
33 | Cc1cnc2nc(-c3cc(NC(=O)Cn4ccnc4)ccc3Cl)[nH]c2c1 [Compound 197] | > 25 µM | > 50 µM | > 22.3 µM
34 | Cc1cnc2nc(-c3cc(NC(=O)C4CCc5ccccc5O4)ccc3Cl)[nH]c2c1 (stereo not drawn) [Compound 198] | > 25 µM | > 28.7 µM | 8.4 µM
35 | Cc1cnc2nc(-c3cc(NC(=O)C4CCCC4)ccc3Cl)[nH]c2c1 [Compound 199] | 23.7 µM | 21.5 µM | 4.4 µM
36 | Cc1cnc2nc(-c3cc(NC(=O)C4(C)CNC4)ccc3Cl)[nH]c2c1 [Compound 200] | > 25 µM | > 50 µM | > 9.6 µM
37 | Cc1cnc2nc(-c3cc(NC(=O)Cc4ccccc4)ccc3Cl)[nH]c2c1 [Compound 202] | > 25 µM | > 50 µM | 1.87 µM
38 | Cc1cnc2nc(-c3cc(NC(=O)c4nc(C)n[nH]4)ccc3Cl)[nH]c2c1 [Compound 203] | > 25 µM | > 50 µM | > 25 µM
39 | Cc1cnc2nc(-c3cc(NC(=O)c4cscn4)ccc3Cl)[nH]c2c1 [Compound 205] | 14.3 µM | > 46.3 µM | 1.26 µM
40 | Cc1cnc2nc(-c3cc(NC(=O)c4cnccn4)ccc3Cl)[nH]c2c1 [Compound 206] | 1.56 µM | 13.4 µM | 0.174 µM
41 | Cc1cnc2nc(-c3cc(NC(=O)c4cncn4C)ccc3Cl)[nH]c2c1 [Compound 207] | > 25 µM | > 50 µM | > 25 µM
42 | Cc1cnc2nc(-c3cc(NC(=O)c4cccnc4)ccc3Cl)[nH]c2c1 [Compound 208] | 8.7 µM | > 32.7 µM | 2.48 µM
43 | Cc1csc(C(=O)Nc2ccc(Cl)c(-c3nc4ncc(C)cc4[nH]3)c2)c1 [Compound 209] | 7.9 µM | 10.4 µM | 1.41 µM
44 | Cc1cnc2nc(-c3cc(NC(=O)c4ccncc4)ccc3Cl)[nH]c2c1 [Compound 212] | 6.6 µM | 22.5 µM | 2.65 µM
45 | Cc1cnc2nc(-c3cc(NC(=O)c4ccnn4C)ccc3Cl)[nH]c2c1 [Compound 213] | > 25 µM | > 48 µM | > 25 µM
46 | CCOC(=O)Nc1ccc(Cl)c(-c2nc3ncc(C)cc3[nH]2)c1 [Compound 217] | 5.9 µM | 10.4 µM | 0.8 µM
47 | Cc1cnc2nc(-c3cc(NC(=O)OCC(C)C)ccc3Cl)[nH]c2c1 [Compound 220] | 7.4 µM | 17.3 µM | 1.66 µM
48 | Cc1cnc2nc(-c3cc(NC(=O)OCc4ccccc4)ccc3Cl)[nH]c2c1 [Compound 223] | > 25 µM | 21.4 µM | 14.1 µM
49 | COC(=O)Nc1ccc(Cl)c(-c2nc3ncc(C)cc3[nH]2)c1 [Compound 224] | 18.7 µM | 11.1 µM | 2.61 µM
50 | Cc1cnc2nc(-c3cc(NC(=O)OCC(F)(F)F)ccc3Cl)[nH]c2c1 [Compound 225] | > 25 µM | > 50 µM | > 25 µM
51 | Cc1cnc2nc(-c3cc(NC(=O)N4CCCCC4)ccc3Cl)[nH]c2c1 [Compound 239] | 13.9 µM | > 35.6 µM | 2.06 µM
